Test results as given in PMC9329436, “Optimization of the 4-anilinoquin(az)oline scaffold as epidermal growth factor receptor (EGFR) inhibitors for chordoma utilizing a toxicology profiling assay platform” (Scientific Reports, 2022).
Read-outs that look alike come from different tables or passages of the source.

What was measured:
Type in all cases: biochemical
[1] = molecular target: T1, 320 wild-type protein kinases (Homo sapiens, UniProt O14733); settings: singlicate
T1 sequence (O14733 1-419): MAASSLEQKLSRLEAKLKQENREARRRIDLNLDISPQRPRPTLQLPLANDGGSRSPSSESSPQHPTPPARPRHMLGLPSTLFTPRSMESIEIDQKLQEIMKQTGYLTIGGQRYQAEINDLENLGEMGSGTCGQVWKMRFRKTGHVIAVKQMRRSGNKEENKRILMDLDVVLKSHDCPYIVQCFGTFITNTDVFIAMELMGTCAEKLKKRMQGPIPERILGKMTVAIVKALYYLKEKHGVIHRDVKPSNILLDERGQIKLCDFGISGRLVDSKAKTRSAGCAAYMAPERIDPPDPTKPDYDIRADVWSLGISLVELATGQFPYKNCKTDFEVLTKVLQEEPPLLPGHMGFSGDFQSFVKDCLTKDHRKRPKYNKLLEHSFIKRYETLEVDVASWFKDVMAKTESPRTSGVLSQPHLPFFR
Description: (§1) Table S4. Profiling of two compounds at two concentrations against 320 wild-type protein kinases; singlicate measurement; Residual activities (% of control).

[2] = molecular target: 320 wild-type protein kinases (Homo sapiens, UniProt Q9Y243); settings: singlicate
Description: as §1

[3] = molecular target: 320 wild-type protein kinases (Homo sapiens, UniProt Q5VT25); settings: CDC42BPA, singlicate
Description: as §1

[4] = molecular target: T2, 320 wild-type protein kinases (Homo sapiens, UniProt Q9NWZ3); settings: IRAK4 (untagged), singlicate
T2 sequence (Q9NWZ3 1-460): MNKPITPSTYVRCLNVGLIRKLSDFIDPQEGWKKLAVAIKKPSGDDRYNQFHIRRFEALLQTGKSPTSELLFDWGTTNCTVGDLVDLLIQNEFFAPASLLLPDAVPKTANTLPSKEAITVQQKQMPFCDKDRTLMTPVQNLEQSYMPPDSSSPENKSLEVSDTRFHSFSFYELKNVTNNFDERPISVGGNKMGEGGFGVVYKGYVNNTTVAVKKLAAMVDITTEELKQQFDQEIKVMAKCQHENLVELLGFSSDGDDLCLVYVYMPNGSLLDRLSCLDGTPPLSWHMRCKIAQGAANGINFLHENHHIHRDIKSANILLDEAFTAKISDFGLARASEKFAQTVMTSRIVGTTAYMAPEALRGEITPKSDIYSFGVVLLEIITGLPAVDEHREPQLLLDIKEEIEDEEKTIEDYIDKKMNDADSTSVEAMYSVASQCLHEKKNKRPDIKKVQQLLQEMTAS
Description: as §1

[5] = molecular target: 320 wild-type protein kinases (Homo sapiens, UniProt Q07912); settings: singlicate
Description: as §1

[6] = molecular target: T3, 320 wild-type protein kinases (Homo sapiens, UniProt Q99986); settings: kinase VRK1, singlicate
T3 sequence (Q99986 1-396): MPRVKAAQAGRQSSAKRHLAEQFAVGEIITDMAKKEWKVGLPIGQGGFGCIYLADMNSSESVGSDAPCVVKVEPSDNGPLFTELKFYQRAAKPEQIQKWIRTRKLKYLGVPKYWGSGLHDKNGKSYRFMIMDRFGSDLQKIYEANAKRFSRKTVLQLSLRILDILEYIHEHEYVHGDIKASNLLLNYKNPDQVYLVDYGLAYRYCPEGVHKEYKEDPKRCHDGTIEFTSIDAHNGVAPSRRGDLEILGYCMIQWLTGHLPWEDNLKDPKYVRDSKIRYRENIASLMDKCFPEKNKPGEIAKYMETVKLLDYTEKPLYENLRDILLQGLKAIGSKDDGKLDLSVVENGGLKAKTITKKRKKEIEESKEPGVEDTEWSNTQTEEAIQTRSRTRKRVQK
Description: as §1

[7] = molecular target: 320 wild-type protein kinases (Homo sapiens, UniProt Q9P286); settings: singlicate
Description: as §1

[8] = molecular target: 320 wild-type protein kinases (Homo sapiens, UniProt O43293); settings: singlicate
Description: as §1

[9] = molecular target: 320 wild-type protein kinases (Homo sapiens, UniProt P80192); settings: singlicate
Description: as §1

[10] = molecular target: T4, 320 wild-type protein kinases (Homo sapiens, UniProt O43781); settings: singlicate
T4 sequence (O43781 1-588): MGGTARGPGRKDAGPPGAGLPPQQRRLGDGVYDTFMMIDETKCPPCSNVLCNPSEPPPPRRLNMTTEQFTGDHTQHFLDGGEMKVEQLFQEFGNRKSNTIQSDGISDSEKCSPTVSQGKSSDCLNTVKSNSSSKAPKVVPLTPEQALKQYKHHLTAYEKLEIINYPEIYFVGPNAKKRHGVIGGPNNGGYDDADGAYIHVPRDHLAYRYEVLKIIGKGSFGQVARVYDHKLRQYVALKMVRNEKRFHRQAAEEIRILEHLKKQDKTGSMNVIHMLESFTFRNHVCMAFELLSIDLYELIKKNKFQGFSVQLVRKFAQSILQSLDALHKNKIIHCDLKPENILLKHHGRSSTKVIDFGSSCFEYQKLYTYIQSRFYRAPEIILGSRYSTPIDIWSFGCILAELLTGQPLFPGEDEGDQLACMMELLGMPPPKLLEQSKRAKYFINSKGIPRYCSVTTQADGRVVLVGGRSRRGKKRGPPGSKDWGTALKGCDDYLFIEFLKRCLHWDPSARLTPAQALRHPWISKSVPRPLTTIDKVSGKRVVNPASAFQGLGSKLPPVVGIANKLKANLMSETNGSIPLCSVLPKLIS
Description: as §1

[11] = molecular target: 320 wild-type protein kinases (Homo sapiens, UniProt P07948); settings: LYN, singlicate
Description: as §1

[12] = molecular target: 320 wild-type protein kinases (Homo sapiens, UniProt Q86V86); settings: singlicate
Description: as §1

Chain of 320 wild-type protein kinases (Homo sapiens, UniProt O43293) (O43293 whole entry): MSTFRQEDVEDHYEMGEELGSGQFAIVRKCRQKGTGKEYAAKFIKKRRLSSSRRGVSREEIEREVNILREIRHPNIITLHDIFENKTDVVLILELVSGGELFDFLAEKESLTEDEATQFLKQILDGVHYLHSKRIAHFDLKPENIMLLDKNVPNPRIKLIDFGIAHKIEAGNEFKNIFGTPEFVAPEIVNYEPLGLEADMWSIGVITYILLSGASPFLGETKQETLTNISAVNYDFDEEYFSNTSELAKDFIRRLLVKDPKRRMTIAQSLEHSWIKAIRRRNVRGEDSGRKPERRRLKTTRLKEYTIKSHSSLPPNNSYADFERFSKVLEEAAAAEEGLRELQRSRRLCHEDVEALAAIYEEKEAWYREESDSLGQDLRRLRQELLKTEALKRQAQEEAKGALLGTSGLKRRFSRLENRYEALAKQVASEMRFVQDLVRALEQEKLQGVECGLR
Chain of 320 wild-type protein kinases (Homo sapiens, UniProt Q5VT25) (Q5VT25 whole entry): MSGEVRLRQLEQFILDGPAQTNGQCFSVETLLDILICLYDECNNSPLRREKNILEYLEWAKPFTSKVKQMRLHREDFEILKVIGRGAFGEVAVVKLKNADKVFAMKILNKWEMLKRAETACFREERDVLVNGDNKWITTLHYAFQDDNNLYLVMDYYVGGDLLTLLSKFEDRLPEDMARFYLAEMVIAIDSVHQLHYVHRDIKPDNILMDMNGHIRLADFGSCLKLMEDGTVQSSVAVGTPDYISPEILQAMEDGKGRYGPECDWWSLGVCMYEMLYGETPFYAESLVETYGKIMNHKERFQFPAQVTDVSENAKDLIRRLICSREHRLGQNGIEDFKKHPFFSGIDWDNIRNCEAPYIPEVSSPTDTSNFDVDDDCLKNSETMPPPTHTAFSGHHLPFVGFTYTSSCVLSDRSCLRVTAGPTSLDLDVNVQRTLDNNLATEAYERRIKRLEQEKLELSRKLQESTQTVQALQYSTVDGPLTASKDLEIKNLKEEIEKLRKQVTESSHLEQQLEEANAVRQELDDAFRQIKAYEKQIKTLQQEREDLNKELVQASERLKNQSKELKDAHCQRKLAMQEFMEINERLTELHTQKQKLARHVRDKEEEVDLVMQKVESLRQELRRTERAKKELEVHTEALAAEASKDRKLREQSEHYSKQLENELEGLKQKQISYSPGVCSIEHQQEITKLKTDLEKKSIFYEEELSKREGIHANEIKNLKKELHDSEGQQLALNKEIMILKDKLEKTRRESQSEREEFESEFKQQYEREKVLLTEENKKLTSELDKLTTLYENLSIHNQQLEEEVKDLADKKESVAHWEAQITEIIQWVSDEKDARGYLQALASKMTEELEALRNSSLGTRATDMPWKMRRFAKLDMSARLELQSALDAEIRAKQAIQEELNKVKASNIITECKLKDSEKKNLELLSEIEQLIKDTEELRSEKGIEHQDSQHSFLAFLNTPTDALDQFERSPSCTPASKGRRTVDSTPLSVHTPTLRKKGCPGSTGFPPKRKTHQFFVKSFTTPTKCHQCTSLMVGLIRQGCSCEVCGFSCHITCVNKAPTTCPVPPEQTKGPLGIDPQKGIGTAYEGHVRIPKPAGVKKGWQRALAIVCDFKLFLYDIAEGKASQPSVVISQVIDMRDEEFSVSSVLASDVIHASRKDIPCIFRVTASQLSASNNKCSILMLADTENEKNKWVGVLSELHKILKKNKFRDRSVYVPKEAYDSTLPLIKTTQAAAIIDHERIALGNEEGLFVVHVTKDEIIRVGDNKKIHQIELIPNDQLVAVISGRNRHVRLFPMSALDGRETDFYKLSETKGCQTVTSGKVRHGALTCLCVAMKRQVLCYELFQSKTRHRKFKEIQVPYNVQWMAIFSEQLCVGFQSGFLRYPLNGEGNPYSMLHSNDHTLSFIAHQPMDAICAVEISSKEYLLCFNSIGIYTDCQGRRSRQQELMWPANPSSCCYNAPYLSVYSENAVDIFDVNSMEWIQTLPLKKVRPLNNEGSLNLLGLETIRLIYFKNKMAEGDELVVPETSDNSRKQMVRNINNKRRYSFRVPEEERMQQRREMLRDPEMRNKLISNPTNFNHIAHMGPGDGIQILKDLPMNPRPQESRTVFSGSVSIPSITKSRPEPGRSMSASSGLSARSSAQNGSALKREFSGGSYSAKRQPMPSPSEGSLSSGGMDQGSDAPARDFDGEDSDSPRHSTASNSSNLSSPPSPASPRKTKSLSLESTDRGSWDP
Chain of 320 wild-type protein kinases (Homo sapiens, UniProt P07948) (P07948 whole entry): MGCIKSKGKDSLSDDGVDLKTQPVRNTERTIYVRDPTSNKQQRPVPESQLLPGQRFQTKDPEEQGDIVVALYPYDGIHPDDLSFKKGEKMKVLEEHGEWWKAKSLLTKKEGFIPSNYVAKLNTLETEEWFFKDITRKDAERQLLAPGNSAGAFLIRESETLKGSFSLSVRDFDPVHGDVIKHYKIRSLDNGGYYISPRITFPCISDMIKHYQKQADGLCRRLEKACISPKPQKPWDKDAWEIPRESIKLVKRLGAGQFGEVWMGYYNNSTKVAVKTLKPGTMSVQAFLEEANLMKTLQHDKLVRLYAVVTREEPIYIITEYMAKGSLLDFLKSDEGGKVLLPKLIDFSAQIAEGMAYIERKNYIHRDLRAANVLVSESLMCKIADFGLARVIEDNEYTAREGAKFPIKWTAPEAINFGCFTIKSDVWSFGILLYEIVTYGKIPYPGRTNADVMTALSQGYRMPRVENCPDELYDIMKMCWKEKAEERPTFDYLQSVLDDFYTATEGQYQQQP
Chain of 320 wild-type protein kinases (Homo sapiens, UniProt Q9P286) (Q9P286 whole entry): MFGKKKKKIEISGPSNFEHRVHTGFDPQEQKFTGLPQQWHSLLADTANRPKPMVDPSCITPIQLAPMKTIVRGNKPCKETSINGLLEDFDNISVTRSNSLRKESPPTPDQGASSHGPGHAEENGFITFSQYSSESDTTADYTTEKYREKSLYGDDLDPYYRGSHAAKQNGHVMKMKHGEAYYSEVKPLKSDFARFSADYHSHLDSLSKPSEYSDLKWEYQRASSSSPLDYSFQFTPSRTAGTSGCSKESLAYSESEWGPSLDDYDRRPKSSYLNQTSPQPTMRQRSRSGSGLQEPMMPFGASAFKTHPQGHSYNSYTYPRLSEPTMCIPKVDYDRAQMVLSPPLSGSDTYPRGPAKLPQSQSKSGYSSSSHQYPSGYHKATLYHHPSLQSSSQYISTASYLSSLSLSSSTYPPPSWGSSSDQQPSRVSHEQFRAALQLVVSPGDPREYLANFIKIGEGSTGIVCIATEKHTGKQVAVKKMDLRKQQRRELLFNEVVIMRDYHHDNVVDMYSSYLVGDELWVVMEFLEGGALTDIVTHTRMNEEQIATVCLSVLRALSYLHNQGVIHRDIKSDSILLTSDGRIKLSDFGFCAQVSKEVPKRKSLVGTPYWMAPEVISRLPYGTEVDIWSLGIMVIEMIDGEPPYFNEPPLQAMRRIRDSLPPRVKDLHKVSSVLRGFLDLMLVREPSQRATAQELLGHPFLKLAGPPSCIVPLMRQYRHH
Chain of 320 wild-type protein kinases (Homo sapiens, UniProt Q07912) (Q07912 whole entry): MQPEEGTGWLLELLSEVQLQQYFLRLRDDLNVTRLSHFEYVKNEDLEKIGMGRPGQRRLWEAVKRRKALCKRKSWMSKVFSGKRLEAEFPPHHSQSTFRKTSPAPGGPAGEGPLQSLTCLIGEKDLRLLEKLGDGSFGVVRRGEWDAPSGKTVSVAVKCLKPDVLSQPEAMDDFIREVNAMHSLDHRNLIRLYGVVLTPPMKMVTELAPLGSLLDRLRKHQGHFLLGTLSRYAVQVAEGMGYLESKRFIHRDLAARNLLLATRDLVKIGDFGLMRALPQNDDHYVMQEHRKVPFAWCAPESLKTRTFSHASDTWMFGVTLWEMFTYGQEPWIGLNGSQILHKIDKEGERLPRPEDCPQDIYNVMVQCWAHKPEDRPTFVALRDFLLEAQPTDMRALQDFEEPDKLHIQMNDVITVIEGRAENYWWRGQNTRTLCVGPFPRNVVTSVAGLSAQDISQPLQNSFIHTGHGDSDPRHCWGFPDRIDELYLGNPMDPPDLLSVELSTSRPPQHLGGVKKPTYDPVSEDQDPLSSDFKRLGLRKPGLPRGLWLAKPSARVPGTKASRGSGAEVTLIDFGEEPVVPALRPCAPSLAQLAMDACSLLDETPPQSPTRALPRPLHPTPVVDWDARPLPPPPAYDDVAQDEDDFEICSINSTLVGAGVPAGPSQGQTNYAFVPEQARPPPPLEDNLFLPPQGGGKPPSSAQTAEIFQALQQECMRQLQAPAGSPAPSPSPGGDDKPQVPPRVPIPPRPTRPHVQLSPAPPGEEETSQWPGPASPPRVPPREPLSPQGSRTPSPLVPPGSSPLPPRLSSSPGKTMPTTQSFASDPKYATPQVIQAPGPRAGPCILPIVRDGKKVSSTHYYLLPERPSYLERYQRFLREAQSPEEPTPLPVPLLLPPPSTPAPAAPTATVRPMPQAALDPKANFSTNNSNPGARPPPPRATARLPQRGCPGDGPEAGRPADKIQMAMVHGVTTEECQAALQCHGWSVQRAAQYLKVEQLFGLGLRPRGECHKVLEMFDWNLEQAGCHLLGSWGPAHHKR

Compound | Residual activity ([1]; MKK7, 1.0E-06 M) | Residual activity ([1]; MKK7, 1.0E-07 M) | Residual activity ([2]; AKT3 aa106-479, 1.0E-06 M) | Residual activity ([2]; AKT3 aa106-479, 1.0E-07 M) | Residual activity ([3]; 1.0E-06 M) | Residual activity ([3]; 1.0E-07 M) | Residual activity ([4]; 1.0E-06 M) | Residual activity ([4]; 1.0E-07 M) | Residual activity ([5]; ACK1, 1.0E-06 M) | Residual activity ([5]; ACK1, 1.0E-07 M) | Residual activity, VRK1 ([6]; assay conc. 1.0E-06 M) | Residual activity, VRK1 ([6]; assay conc. 1.0E-07 M) | Residual activity ([7]; PAK7, 1.0E-06 M) | Residual activity ([7]; PAK7, 1.0E-07 M) | Residual activity ([8]; DAPK3, 1.0E-06 M) | Residual activity ([8]; DAPK3, 1.0E-07 M) | Residual activity ([9]; MAP3K9, 1.0E-06 M) | Residual activity ([9]; MAP3K9, 1.0E-07 M) | Residual activity ([10]; DYRK3, 1.0E-06 M) | Residual activity ([10]; DYRK3, 1.0E-07 M) | also measured
C#Cc1cc(Nc2ncnc3cc(I)ccc23)ccc1Cl [Compound 41] | 120 % of control | 86 % of control | 97 % of control | 94 % of control | 141 % of control | 140 % of control | 84 % of control | 96 % of control | 98 % of control | 134 % of control | 98 % of control | 109 % of control | 81 % of control | 108 % of control | 109 % of control | 110 % of control | 87 % of control | 97 % of control | 81 % of control | 96 % of control | Residual activity ([11]; 1.0E-06 M): 89 % of control; Residual activity ([11]; 1.0E-07 M): 103 % of control; Residual activity ([12]; PIM3, 1.0E-06 M): 83 % of control; Residual activity ([12]; PIM3, 1.0E-07 M): 81 % of control
C#Cc1cc(Nc2ncnc3cc(OC)c(OC)cc23)ccc1Cl [Compound 45] | 98 % of control | 112 % of control | 101 % of control | 96 % of control | 113 % of control | 114 % of control | 69 % of control | 90 % of control | 63 % of control | 100 % of control | 93 % of control | 104 % of control | 91 % of control | 99 % of control | 114 % of control | 112 % of control | 61 % of control | 92 % of control | 69 % of control | 97 % of control | Residual activity ([11]; 1.0E-06 M): 62 % of control; Residual activity ([11]; 1.0E-07 M): 94 % of control; Residual activity ([12]; PIM3, 1.0E-06 M): 53 % of control; Residual activity ([12]; PIM3, 1.0E-07 M): 81 % of control
